In ChEMBL document CHEMBL1759904, “Synthesis and application of a bromomethyl substituted scaffold to be used for efficient optimization of anti-virulence activity” (Eur J Med Chem, 2011):
The source made the active and inactive calls. The rule behind the calls is not given here.

How the values were obtained:
Escherichia coli [1] = assay: Antibacterial activity against Escherichia coli UTI89 assessed as inhibition of biofilm formation at 200 uM after 24 hrs; assay type: functional; settings: for inhibition at 200 µM: UTI89, 24 h
Escherichia coli [2] = assay: Antibacterial activity against Escherichia coli UTI89 assessed as inhibition of biofilm formation after 24 hrs; assay type: functional, organism-based; settings: UTI89, 24 h
HeLa = assay: Cytotoxicity against human HeLa cells after 24 hrs by calcein AM based spectrophotometric analysis; assay type: cell-based
Escherichia coli [3] = assay: Antibacterial activity against Escherichia coli UTI89 assessed as number of wells with agglutination by hemagglutinination assay in presence of 500 uM pilicide; assay type: functional

EC50 (Escherichia coli [2]) [µM] | Structure (SMILES) | inhibition at 200 µM (Escherichia coli [1]) [%] | Activity (HeLa) | inhibition (Escherichia coli [1]) | Activity (Escherichia coli [3])
130 | O=C(O)[C@@H]1CSc2c(-c3cccc(C(F)(F)F)c3)c(CN3CCc4ccccc4C3)cc(=O)n21 | 84 | – | – | –
38 | O=C(O)[C@@H]1CSc2c(-c3cccc(C(F)(F)F)c3)c(CNS(=O)(=O)c3cccc4ccccc34)cc(=O)n21 | 91 | Non-toxic | – | –
– | O=C(NCc1cc(=O)n2c(c1-c1cccc(C(F)(F)F)c1)SC[C@H]2C(=O)O)c1ccccc1 | – | – | inactive | –
– | COc1ccc2cc(Cc3cc(=O)n4c(c3C3CC3)SC[C@H]4C(=O)O)ccc2c1 | – | – | inactive | –
30 | O=C(O)[C@@H]1CSc2c(-c3cccc(C(F)(F)F)c3)c(Cc3ccc4[nH]ccc4c3)cc(=O)n21 | 97 | Non-toxic | – | 5
– | O=C(O)[C@@H]1CSc2c(-c3cccc(C(F)(F)F)c3)c(CN3CCOCC3)cc(=O)n21 | – | – | inactive | –
– | O=C(O)[C@@H]1CSc2c(-c3cccc(C(F)(F)F)c3)c(CN3CCCCC3)cc(=O)n21 | 30 | – | – | –
– | O=C(O)[C@@H]1CSc2c(C3CC3)c(CN3CCOCC3)cc(=O)n21 | – | – | inactive | –
– | O=C(O)[C@@H]1CSc2c(C3CC3)c(COc3ccccc3)cc(=O)n21 | 43 | – | – | –
– | O=C(O)[C@@H]1CSc2c(-c3cccc(C(F)(F)F)c3)c(CNS(=O)(=O)c3ccccc3)cc(=O)n21 | 48 | – | – | –
9 | COc1ccc2cc(Cc3cc(=O)n4c(c3-c3cccc(C(F)(F)F)c3)SC[C@H]4C(=O)O)ccc2c1 | 93 | Non-toxic | – | 5.5
– | O=C(NCc1cc(=O)n2c(c1C1CC1)SC[C@H]2C(=O)O)c1ccccc1 | – | – | inactive | –
– | O=C(NCc1cc(=O)n2c(c1C1CC1)SC[C@H]2C(=O)O)c1cccc2ccccc12 | – | – | inactive | –
21 | O=C(O)[C@@H]1CSc2c(-c3cccc(C(F)(F)F)c3)c(COc3ccccc3)cc(=O)n21 | 80 | Non-toxic | – | –
– | O=C(O)[C@@H]1CSc2c(C3CC3)c(CNS(=O)(=O)c3cccc4ccccc34)cc(=O)n21 | – | – | inactive | –
43 | O=C(O)[C@@H]1CSc2c(C3CC3)c(Cc3cccc(OCc4ccc(F)cc4)c3)cc(=O)n21 | 76 | Non-toxic | – | –
130 | O=C(NCc1cc(=O)n2c(c1-c1cccc(C(F)(F)F)c1)SC[C@H]2C(=O)O)c1cccc2ccccc12 | 65 | – | – | –
32 | O=C(O)[C@@H]1CSc2c(C3CC3)c(COc3cccc4ccccc34)cc(=O)n21 | 96 | Non-toxic | – | 5.5
– | O=C(O)[C@@H]1CSc2c(C3CC3)c(Cc3ccc4[nH]ccc4c3)cc(=O)n21 | 37 | – | – | –
17 | O=C(O)[C@@H]1CSc2c(-c3cccc(C(F)(F)F)c3)c(Cc3cccc4ccccc34)cc(=O)n21 | 92 | Non-toxic | – | 5
37 | O=C(O)[C@@H]1CSc2c(-c3cccc(C(F)(F)F)c3)c(COc3cccc4ccccc34)cc(=O)n21 | 72 | Non-toxic | – | 5
189 | O=C(O)[C@@H]1CSc2c(C3CC3)c(Cc3cccc4ccccc34)cc(=O)n21 | 54 | Non-toxic | – | 7
– | O=C(O)[C@@H]1CSc2c(C3CC3)c(CNS(=O)(=O)c3ccccc3)cc(=O)n21 | – | – | inactive | –
3 | O=C(O)[C@@H]1CSc2c(-c3cccc(C(F)(F)F)c3)c(Cc3cccc(OCc4ccc(F)cc4)c3)cc(=O)n21 | 75 | Non-toxic | – | –
– | O=C(O)[C@@H]1CSc2c(C3CC3)c(CN3CCc4ccccc4C3)cc(=O)n21 | – | – | inactive | –
– | O=C(O)[C@@H]1CSc2c(C3CC3)c(CN3CCCCC3)cc(=O)n21 | – | – | inactive | –
